Results as given in US20040224995A1 (University of North Texas Health Science Center at Fort …, priority 2003, published 2004).

Assays:
[1] = tested on: HT-22 cells; experiment: HT-22 cell viability during H2O2 exposure (calcein AM assay); assay type: cell-based, mouse; conditions: for pre-incubation required to achieve significant neuroprotection from H2O2 toxicity / protection against H2O2: HT-22; for concentrations toxic to HT-22 cells: HT-22, H2O2 experiments; for protection against H2O2: 24 h pretreatment, 30 μM H2O2; for protection when given after the H2O2 insult: post-treatment
Method: HT-22 cultures were incubated with different concentrations of the three compounds for 24 hours prior to the insult. […] Peak neuroprotective concentrations for 15d-PGJ2 ranged from […]. […] Additionally, we determined the effects of 15d-PGJ2 and troglitazone on HT-22 cells protection against another type of pro-oxidant insult, hydrogen peroxide H2O2. […] Higher concentrations (>10 μM and >20 μM) of 15 dPGJ2 and troglitazone, respectively, were toxic to HT-22 cells. […] HT-22 cells were pre-treated with 15d-PGJ2 for 24 hours. Thirty micromolar of H2O2 was then administered, and cell viability was determined 24 hours later. The cell viability is expressed as a % survival of the control (non-peroxide treated) cultures. DMSO received the vehicle only for 15d-PGJ2. Shown in FIG. 23 are the mean±SEM for n>6 cultures/group. The asterisk (“*”) indicates p<0.05 versus respective control.
The WY-14643, Ciglitazone, Troglitazone, 9-cis retinoic acid, and 15d-PGJ2 compounds were purchased from Biomol (Plymouth Meeting, Pa.). L-165041 and L-783483 were kindly provided by Merck Laboratories. The cell lines used were HT-22, an immortalized mouse hippocampal cell line, and SK—N—SH, a human neuroblastoma cell line. The HT-22 cells were obtained from David Schubert (Salk Institute, San Diego, Calif.). The HT-22 line was originally selected from HT-4 cells based on glutamate sensitivity. HT-4 cells were immortalized from primary hippocampal neurons using a temperature-sensitive SV-40 T antigen (Morimoto and Koshland, 1990). SK—N—SH were obtained from ATCC (Manassas, Va.). HT-22 and SK—N—SH cells were grown to confluence in DMEM and RPMI-1640 media, respectively, and supplemented with 10% charcoal/dextran-treated fetal bovine serum (FBS), and 5 mg/ml gentamycin at 37° C. under 95% air, 5% CO2. HT-22 cells were plated at a density of 50,000 cells/ml (5,000 cells/well), and SK—N—SH were plated at a density of 120,000 to 150,000 cells/ml (12,000 to 15,000 cells/well) in 96-well plates. In most studies, wells were pre-treated with PPAR ligands over a wide dose range at various times prior to being subjected to either glutamate, hydrogen peroxide (H2O2), or serum deprivation insults. In some studies, the insults were applied prior to the addition of the PPAR ligand.
The cell viability assays were conducted about 14 to 24 hours post-insult time, viability of cells was determined using 2.5 μM Calcein AM assay in phosphate-buffered saline (PBS). After 25 minutes of incubation, live cells were distinguished by the presence of intracellular esterase activity, which cleaves the calcein AM dye, producing a bright green fluorescence. Viability was measured in Relative Fluorescent Units (“RFU”), and expressed as percentage of vehicle-treated control values. The calcein assay was designed to produce results that accurately reflect viable cell numbers. At cell concentrations below 10,000 cells per well (96-well plate) a linear relationship between RFU and cell number is achieved (r^2=0.9997, data not shown).

[2] = tested on: C6 Glioma cells; experiment: C6 glioma glutamate cytotoxicity; assay type: cell-based, rat; conditions: dose dependent manner
Method: (§1) The in vitro model used for oxidative cell death was based upon glutamate, hydrogen peroxide, and buthionine sulfoximine (“BSO”) administration to HT-22 mouse hippocampal, C6 rat glioma, and RGC-5 retinal ganglion cell lines. The ease that the above cell lines are cultured is well known in the art of cell culture. Additionally, these cell lines are suitable for screening a various number of compounds described in the present invention.
(§2) Although not wanting to be bound by theory, the toxicity of glutamate in HT-22 (32) and C6 glioma (33) cell lines is mediated through oxidative stress. HT-22 cells lack ionotropic N-methyl-D-aspartate (“NMDA”) glutamate receptors, and the glutamate-induced cell death appears to occur via a slow onset oxidative stress (32,34,35). Glutamate blocks cystine uptake by inhibiting the glutamate/cystine antiporter in both HT-22 (32) and C6 glioma (33) cell lines. […] In some of the experiments, the viability of cells was determined using 2.5 μM calcein AM assay in phosphate-buffered saline (PBS 1×). After 25 minutes of incubation, live cells were distinguished by the presence of intracellular esterase activity, which cleaves the calcein AM dye, producing a bright green fluorescence, as shown in FIG. 22. Viability was measured in Relative Fluorescent Units (“RFU”), and expressed as percentage of vehicle-treated control values. […]

[3] = tested on: RGC-5 cells; experiment: RGC-5 glutamate cytotoxicity; assay type: cell-based; conditions: dose dependent manner
Method: as §1, §2

SMILES: Cc1c(C)c2c(c(C)c1O)CCC(C)(COc1ccc(CC3SC(=O)NC3=O)cc1)O2 (stereo not drawn) [troglitazone]
- pre-incubation required to achieve significant neuroprotection from H2O2 toxicity [1]: 4 h
- concentrations toxic to HT-22 cells [1]: > 20 µM
- protection against H2O2 [1]: dose-dependent protection
- protection when given after the H2O2 insult [1]: Neither 15dPGJ2 nor troglitazone protected
- protection against glutamate toxicity [2]: protected
- protection against glutamate toxicity [3]: protected

SMILES: CCCCC/C=C/C=C1/C(=O)C=C[C@@H]1C/C=C\CCCC(=O)O [15d-PGJ2, 15-deoxy-Δ^12,14-PGJ2]
- pre-incubation required to achieve significant neuroprotection from H2O2 toxicity [1]: 4 h
- concentrations toxic to HT-22 cells [1]: above 10 μM
- protection against H2O2 [1]: dose-dependent protection
- protection when given after the H2O2 insult [1]: Neither 15dPGJ2 nor troglitazone protected
- protection against glutamate toxicity [2]: protected
- protection against glutamate toxicity [3]: protected
